PMC4087041, “Effect of the Piperazine Unit and Metal-Binding Site Position on the Solubility and Anti-Proliferative Activity of Ruthenium(II)- and Osmium(II)- Arene Complexes of Isomeric Indolo[3,2-c]quinoline—Piperazine Hybrids” (Inorganic Chemistry, 2014)
Where two headings read alike, the source gives them in different places. Each block holds one compound with its values, some of them ahead of it.

Legend:
[1] = system: SK-N-MC neuroepithelioma cells; assay: MTT assay, inhibition of growth of SK-N-MC cells; format: cell-based, Human; details: 72 h, medium with diferric transferrin 1.25 μM, mean ± SD (three experiments), read-out: IC50 at inhibiting the growth of SK-N-MC neuroepithelioma cells
Description: Human SK-N-MC neuroepithelioma cells were obtained from the American Type Culture Collection (ATCC; Manassas, VA). The SK-N-MC cell type was grown as described previously.[51]
The effect of complexes [1a,b]Cl–[3a,b]Cl on the cellular proliferation of SK-N-MC cells was examined using the 1-(4,5-dimethylthiazol-2-yl)-2,5-diphenyl-tetrazolium (MTT) assay by standard techniques.[52],[53] Human SK-N-MC cells were chosen for these studies as the antiproliferative effect of metal complexes has been extensively examined in this cell type.[52]−[54] MTT reduction is proportional to viable cell counts using SK-N-MC cells.[51] SK-N-MC cells were seeded at 1.5 × 10^4 cells/well in 96-well microtiter plates in a medium containing the compounds (0–50 μM) and human diferric transferrin (Tf) at 1.25 μM ([Fe] = 2.5 μM). Control samples contained Tf (1.25 μM) in the absence of the compounds. […] It is essential to add to the media when assessing the antiproliferative activity of the ligands used as positive controls, namely, desferrioxamine (DFO), di-2-pyridylketone 4,4-dimethyl-3-thiosemicarbazone (Dp44mT), and Doxorubicin.[61] The cells were incubated at 37 °C for 72 h, after which 10 μL of MTT solution (stock solution: 5 mg/mL) was added to each well and incubated for 2 h at 37 °C. After cell solubilization using 100 μL of 10% SDS–50% isobutanol in 0.01 M HCl, the plates were read at 570 nm using a scanning multiwell spectrophotometer. The inhibitory concentration (IC50) was defined as the concentration of the compound necessary to reduce the absorbance to 50% of the untreated control.

[2] = Hydrolysis / stability in aqueous media by HPLC; format: physicochemical; details: for Estimated half-lifetime of the chlorido species: 75 μM solution in 20 mM phosphate buffer at pH 7.40, HPLC with UV detection at 300 nm; for Fraction of complex hydrolyzed after 24 h: 20 mM NaH2PO4/Na2HPO4 buffer at pH 7.40, 24 h, HPLC (Figure S4)
Description: One-dimensional (1D) ^1H and ^13C NMR and two-dimensional (2D) ^1H–^1H COSY, ^1H–^1H TOCSY, ^1H–^1H ROESY or ^1H–^1H NOESY, ^1H–^13C HSQC, and ^1H–^13C HMBC NMR spectra were recorded on two Bruker Avance III spectrometers at 500.32 or 500.10 (^1H), and 125.82 or 125.76 (^13C) MHz, respectively, by using DMSO-d6 as a solvent at room temperature and standard pulse programs. ^1H and ^13C shifts are quoted relative to the solvent residual signals. The atom numbering scheme used for NMR assignments is depicted in Supporting Information, Scheme S1. Electrospray ionization mass spectrometry (ESI-MS) was carried out with a Bruker Esquire 3000 instrument, and the samples were dissolved in methanol. Elemental analyses were performed at the Microanalytical Laboratory of the University of Vienna with a PerkinElmer 2400 CHN Elemental Analyzer (PerkinElmer, Waltham, MA). Hydrolysis studies were undertaken on a ThermoFisher Dionex UltiMate 3000 HPLC (Waltham, MA) device. The column compartment was kept at 298 K. A Hypersil Gold C18 Reversed phase Silica Column (250 × 4.6 mm, 5 μm particle size, ThermoFisher; Waltham, MA) equipped with a guard column was used. The complexes were dissolved in either pure deionized water or phosphate buffer at pH 7.40 so that the final concentrations were 100 mM or 75 μM, respectively. Samples were automatically injected into the HPLC, and separation of the hydrolysis products was achieved by applying gradient elution (5–80% or 10–50% acetonitrile in 15 mM aqueous formic acid). Detection and quantification of the peaks was conducted using the ThermoFisher Dionex DAD-3000RS UV detector (Waltham, MA) at a wavelength of 300 nm and the Chromeleon 7 software package (ThermoFisher Dionex, Sunnyvale, CA).
Their stability in deionized water (Supporting Information, Figure S3) is very similar to that in buffered solution at physiological pH (Supporting Information, Figure S4; 20 mM NaH2PO4/Na2HPO4 buffer at pH 7.40). […] Attempts to establish the nature of the predominant hydrolysis reactions were then performed. The fractions containing the two peaks from the hydrolysis of [2a]Cl were collected and subjected to high-resolution ESI mass spectrometry. The most abundant mass at m/z 373.1397 could be attributed to the doubly charged fragment [M–2Cl]^2+, whereas the second peak at m/z 736.2786 was assigned to the hydroxido species [M–2Cl+OH]^+, clearly stemming from hydrolysis of the chlorido ligand.
Data were recorded every hour over 24 h using HPLC with UV detection at 300 nm (see Experimental Section for details). Quantification was done by normalizing the AUC to the AUC at 0 h.

[3] = Stability in DMSO by ESI mass spectrometry; format: physicochemical; details: DMSO solution, up to 19 h old, diluted with methanol 1:100, ESI-MS
Source text: Complexes [3a]Cl and [3b]Cl remain intact when dissolved in DMSO.

- IC50 ([1]; Homo sapiens, SK-N-MC): 9.83 ± 0.39 µM
Compound: CC(=O)N(O)CCCCCNC(=O)CCC(=O)N(O)CCCCCNC(=O)CCC(=O)N(O)CCCCCN [DFO, desferrioxamine, reference compound]

- IC50 ([1]; Homo sapiens, SK-N-MC): 0.15 ± 0.05 µM
Compound: COc1cccc2c1C(=O)c1c(O)c3c(c(O)c1C2=O)C[C@@](O)(C(=O)CO)C[C@@H]3O[C@H]1C[C@H](N)[C@H](O)[C@H](C)O1 [DOX, doxorubicin, reference compound]

- IC50 [1]: 0.004 ± 0.003 µM
Compound: CN(C)C(=S)NN=C(c1ccccn1)c1ccccn1 [Dp44mT, di-2-pyridylketone 4,4-dimethyl-3-thiosemicarbazone, reference compound]

- IC50 [1]: > 50 µM
Compound: (η^6-p-Cymene)[6-(4-methylpiperazin-1-yl)-κN-(pyridin-2-yl-methylene)-11H-indolo[3,2-c]quinolin-2-κN-amine]chloridoosmium(II) Chloride [[1b]Cl]

- IC50 [1]: 39.8 ± 2.07 µM
Compound: (η^6-p-Cymene)[6-(4-methylpiperazin-1-yl)-κN-(pyridin-2-yl-methylene)-11H-indolo[3,2-c]quinolin-2-κN-amine]chloridoruthenium(II) Chloride [[1a]Cl]

- IC50 [1]: 19.4 ± 1.28 µM
- Estimated half-lifetime of the chlorido species [2]: approximately 6 h
- Fraction of complex hydrolyzed after 24 h [2]: greater than 90%
Compound: (η^6-p-Cymene)[6-(4-methylpiperazin-1-yl)-κN-(pyridin-2-yl-methylene)-11H-indolo[3,2-c]quinolin-4-κN-amine]chloridoosmium(II) Chloride [[2b]Cl]

- IC50 [1]: 18.4 ± 2.22 µM
- Estimated half-lifetime of the chlorido species [2]: approximately 6 h
- AUC of third (minor) hydrolysis species compared to the starting material ([2]; 75 μM solution in 20 mM phosphate buffer at pH 7.40, after 24 h): approximately 12%
- Fraction of complex hydrolyzed after 24 h [2]: greater than 90%
Compound: (η^6-p-Cymene)[6-(4-methylpiperazin-1-yl)-κN-(pyridin-2-yl-methylene)-11H-indolo[3,2-c]quinolin-4-κN-amine]chloridoruthenium(II) Chloride [[2a]Cl]

- Stability when dissolved in DMSO [3]: remain intact
- IC50 [1]: 41.2 ± 2.37 µM
Compound: (η^6-p-Cymene)[6-(4-methylpiperazin-1-yl)-κN-(pyridin-2-yl-methylene)-11H-indolo[3,2-c]quinolin-8-κN-amine]chloridoosmium(II) Chloride [[3b]Cl]

- Stability when dissolved in DMSO [3]: remain intact
- IC50 [1]: > 50 µM
Compound: (η^6-p-Cymene)[6-(4-methylpiperazin-1-yl)-κN-(pyridin-2-yl-methylene)-11H-indolo[3,2-c]quinolin-8-κN-amine]chloridoruthenium(II) Chloride [[3a]Cl]
